15 compounds from publication PMC6328172, “5-HT2 receptor binding, functional activity and selectivity in N-benzyltryptamines” (PLoS ONE, 2019) can be followed below.

The target of one assay is human 5-HT2B receptor (Homo sapiens, UniProt P41595). Nature of the assay: Competition binding to the human 5-HT2B receptor ([3H]LSD, CHO-5-HT2B membranes).
Assay [1] has as its target T1, human 5-HT2A receptor (Homo sapiens, UniProt P28223).
T1 construct: expressed in transfected cells; host or cells: CHO (CHO-5-HT2A cell line)
Nature of the assay: Ca2+ mobilization in CHO h5-HT2A cells. The format is cell-based. The conditions noted are these: for EC50: Ca2+ mobilization; for Selectivity 5-HT2A/2C (functional): from EC50 values, Table 2; for Emax: relative efficacy, % of response to 5-HT; for times less potent than its 5-methoxytryptamine analog, h5-HT2A functional assay: 3 vs 38, 5 vs 39.

The target in assay [2] is T1, human 5-HT2A receptor. Nature of the assay: Competition binding to the human 5-HT2A receptor ([3H]ketanserin, CHO-5-HT2A membranes). The conditions noted are these: for Selectivity 5-HT2A/2C (binding): from Ki values, Table 1; for Ki: human receptor, [3H]ketanserin displacement, no unit in the table, nM, read-out: 5-HT2A Ki (in parentheses) (converted); for inhibition at 10 µM: values marked *.

Assay [3] has as its target T2, human 5-HT2C receptor (Homo sapiens, UniProt P28335).
T2 construct: expressed in transfected cells; host or cells: HeLa (HeLa-5-HT2C cell line)
T2 sequence (P28335 33-458): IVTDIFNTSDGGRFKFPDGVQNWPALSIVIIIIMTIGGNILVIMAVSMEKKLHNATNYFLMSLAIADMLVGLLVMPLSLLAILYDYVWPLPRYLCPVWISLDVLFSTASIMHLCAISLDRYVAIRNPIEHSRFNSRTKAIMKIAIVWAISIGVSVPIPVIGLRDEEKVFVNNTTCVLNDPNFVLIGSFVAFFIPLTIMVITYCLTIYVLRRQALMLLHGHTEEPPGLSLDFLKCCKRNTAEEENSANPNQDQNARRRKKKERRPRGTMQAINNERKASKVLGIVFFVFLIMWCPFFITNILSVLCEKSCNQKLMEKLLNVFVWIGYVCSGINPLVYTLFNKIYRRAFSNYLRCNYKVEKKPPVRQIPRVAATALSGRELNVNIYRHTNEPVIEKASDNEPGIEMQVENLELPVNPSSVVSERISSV
Briefly: Competition binding to the human 5-HT2C receptor ([3H]mesulergine, HeLa-5-HT2C membranes). As to conditions: for Selectivity 5-HT2C/2A (binding, in parentheses): from Ki values, Table 1; for Ki: human receptor, [3H]mesulergine displacement, no unit in the table, nM, read-out: 5-HT2C Ki (in parentheses) (converted); for inhibition at 10 µM: values marked *.

In assay [4] the target is T2, human 5-HT2C receptor. Nature of the assay: Ca2+ mobilization in HeLa h5-HT2C cells. The format is cell-based. The conditions noted are these: for EC50: Ca2+ mobilization, no unit in the table, nM, read-out: 5-HT2C EC50 (in parentheses) (converted); for Emax: HeLa, read-out: 5-HT2C % Emax; for Selectivity 5-HT2C/2A (functional, in parentheses): from EC50 values, Table 2.

Where [5] appears, read: no unit in the table, nM, read-out: 5-HT2A EC50 (in parentheses) (converted).

Structures are written as SMILES. Where two headings read alike, the source gives them in different places.

human 5-HT2B receptor, sequence (P41595 whole entry): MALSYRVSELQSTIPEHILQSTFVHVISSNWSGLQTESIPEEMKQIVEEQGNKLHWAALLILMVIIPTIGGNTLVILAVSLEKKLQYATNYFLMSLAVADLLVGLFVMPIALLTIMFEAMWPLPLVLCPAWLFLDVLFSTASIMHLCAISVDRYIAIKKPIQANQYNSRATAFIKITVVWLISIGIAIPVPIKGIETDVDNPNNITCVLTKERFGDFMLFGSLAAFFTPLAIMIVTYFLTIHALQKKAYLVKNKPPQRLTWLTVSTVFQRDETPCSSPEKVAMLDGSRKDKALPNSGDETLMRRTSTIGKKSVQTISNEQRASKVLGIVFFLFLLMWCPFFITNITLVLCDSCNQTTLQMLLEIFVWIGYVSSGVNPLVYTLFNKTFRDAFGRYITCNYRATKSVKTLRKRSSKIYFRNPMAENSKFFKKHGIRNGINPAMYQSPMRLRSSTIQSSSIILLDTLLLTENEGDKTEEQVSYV
T1 sequence (P28223 whole entry): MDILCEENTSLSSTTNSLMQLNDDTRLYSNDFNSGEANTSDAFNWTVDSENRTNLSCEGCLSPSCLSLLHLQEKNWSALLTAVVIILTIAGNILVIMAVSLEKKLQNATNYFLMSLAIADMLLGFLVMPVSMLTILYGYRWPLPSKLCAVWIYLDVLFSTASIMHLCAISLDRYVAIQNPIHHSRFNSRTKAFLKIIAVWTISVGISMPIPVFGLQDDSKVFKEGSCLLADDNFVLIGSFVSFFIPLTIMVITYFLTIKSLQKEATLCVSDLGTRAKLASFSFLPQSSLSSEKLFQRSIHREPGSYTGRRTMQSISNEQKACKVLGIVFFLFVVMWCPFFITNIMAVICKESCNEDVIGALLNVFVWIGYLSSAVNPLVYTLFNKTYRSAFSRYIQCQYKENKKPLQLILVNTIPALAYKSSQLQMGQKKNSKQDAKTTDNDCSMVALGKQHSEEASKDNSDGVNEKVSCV

Take `c1ccc(CNCCc2c[nH]c3ccccc23)cc1` [Compound 1, N-Benzyl-[2-(1H-indol-3-yl)ethyl]amine]: at human 5-HT2B receptor, the affinity, expressed as Ki, was 100 nM. For the same compound, the EC50 at human 5-HT2A receptor [1] (setting [5]) was 162 nM. For the same compound, on human 5-HT2A receptor [1], the “Selectivity 5-HT2A/2C (functional)” value is 0.31 and the Emax was determined as 61.6 ± 5.17%. For the same compound, at human 5-HT2A receptor [2], the “Selectivity 5-HT2A/2C (binding)” value came out at 0.75 and the Ki is 245 nM. On human 5-HT2C receptor [3], the “Selectivity 5-HT2C/2A (binding, in parentheses)” value turned out to be 1.33 and the Ki is 186 nM. Further, at human 5-HT2C receptor [4], the EC50 is 50.1 nM; the maximal response (Emax) was found to be 121 ± 6.58%; the “Selectivity 5-HT2C/2A (functional, in parentheses)” value was 3.24.
Regarding `Oc1ccccc1CNCCc1c[nH]c2ccccc12` [Compound 2, N-(2-Hydroxybenzyl)-[2-(1H-indol-3-yl)ethyl]amine], affinity on human 5-HT2B receptor was put at a Ki of 67.6 nM. Also, the EC50 on human 5-HT2A receptor [1] (setting [5]) is 200 nM. Further, at human 5-HT2A receptor [1], the “Selectivity 5-HT2A/2C (functional)” value was determined as 0.17 and the maximal response (Emax) came out at 94.1 ± 4.59%. At human 5-HT2A receptor [2], the “Selectivity 5-HT2A/2C (binding)” value is recorded as 0.73 and the Ki is 115 nM. At human 5-HT2C receptor [3], the “Selectivity 5-HT2C/2A (binding, in parentheses)” value was determined as 1.37 and the inhibition constant Ki was 85.1 nM. Also, at human 5-HT2C receptor [4], the EC50 is 33.9 nM; the Emax worked out at 85.8 ± 2.83%; the “Selectivity 5-HT2C/2A (functional, in parentheses)” value is listed as 5.89.
Compound `COc1ccccc1CNCCc1c[nH]c2ccccc12` [Compound 3, N-(2-Methoxybenzyl)-[2-(1H-indol-3-yl)ethyl]amine] gave a Ki on human 5-HT2B receptor of 46.8 nM. Also, on human 5-HT2A receptor [1], the “times less potent than its 5-methoxytryptamine analog, h5-HT2A functional assay” value is recorded as “several hundred times less potent”; the “Selectivity 5-HT2A/2C (functional)” value is 0.023; the Emax turned out to be 63 ± 1.95%. Further, the EC50 at human 5-HT2A receptor [1] (pEC50 ± SEM, read-out: 5-HT2A pEC50 (converted)) is 1550 nM. Further, the EC50 at human 5-HT2A receptor [1] (setting [5]) was 1550 nM. Moreover, at human 5-HT2A receptor [2], the “Selectivity 5-HT2A/2C (binding)” value was determined as 2.56 and the inhibition constant (Ki) was 89.1 nM. On human 5-HT2C receptor [3], the “Selectivity 5-HT2C/2A (binding, in parentheses)” value is listed as 0.39 and the inhibition constant Ki is 224 nM. At human 5-HT2C receptor [4], the EC50 is 35.5 nM; the Emax turned out to be 94.2 ± 3.75%; the “Selectivity 5-HT2C/2A (functional, in parentheses)” value was 43.7.
On to `Cc1ccccc1CNCCc1c[nH]c2ccccc12` [Compound 4, N-(2-Methylbenzyl)-[2-(1H-indol-3-yl)ethyl]amine], for which the results for the inhibitory constant (Ki) on human 5-HT2B receptor and on human 5-HT2C receptor [3] were 339 nM and 661 nM, respectively. Moreover, the values for the EC50 at human 5-HT2A receptor [1] (setting [5]) and on human 5-HT2C receptor [4] were 2000 nM and 138 nM, respectively. In addition, at human 5-HT2A receptor [1], the “Selectivity 5-HT2A/2C (functional)” value amounted to 0.069. Further, the figures for the Emax on human 5-HT2A receptor [1] and at human 5-HT2C receptor [4] were 44.4 ± 2.79% and 107 ± 2.9%, respectively. In addition, the inhibition at 10 µM on human 5-HT2A receptor [2] was found to be 48 ± 1%. At human 5-HT2C receptor [4], the “Selectivity 5-HT2C/2A (functional, in parentheses)” value was 14.5.
At human 5-HT2B receptor, `Clc1ccccc1CNCCc1c[nH]c2ccccc12` [Compound 5, N-(2-Chlorobenzyl)-[2-(1H-indol-3-yl)ethyl]amine] had a Ki of 23.4 nM. Also, at human 5-HT2A receptor [1], the “times less potent than its 5-methoxytryptamine analog, h5-HT2A functional assay” value is on record as ~40 times; the “Selectivity 5-HT2A/2C (functional)” value was determined as 0.42; the maximum response (Emax) is 25.5 ± 1.16%. Further, on human 5-HT2A receptor [1] (setting [5]), the EC50 was 468 nM. In addition, on human 5-HT2A receptor [2], the “Selectivity 5-HT2A/2C (binding)” value amounted to 2.04 and the Ki is 12 nM. Besides, at human 5-HT2C receptor [3], the “Selectivity 5-HT2C/2A (binding, in parentheses)” value is 0.49 and the Ki was 24.6 nM. Besides, at human 5-HT2C receptor [4], the EC50 is 195 nM; the maximal effect (Emax) turned out to be 87.1 ± 4.96%; the “Selectivity 5-HT2C/2A (functional, in parentheses)” value was found to be 2.40.
The compound `Oc1ccc(CNCCc2c[nH]c3ccccc23)cc1` [Compound 12, N-(4-Hydroxybenzyl)-[2-(1H-indol-3-yl)ethyl]amine] showed a Ki at human 5-HT2B receptor of 490 nM. On human 5-HT2A receptor [2], the “Selectivity 5-HT2A/2C (binding)” value came to 1.09 and the inhibition constant (Ki) is 912 nM. Moreover, on human 5-HT2C receptor [3], the “Selectivity 5-HT2C/2A (binding, in parentheses)” value is on record as 0.92 and the inhibition constant Ki is 1000 nM. Moreover, at human 5-HT2C receptor [4], the EC50 was 145 nM and the Emax was 99.7 ± 2.81%.
For the compound `COc1ccc(CNCCc2c[nH]c3ccccc23)cc1` [Compound 13, N-(4-Methoxybenzyl)-[2-(1H-indol-3-yl)ethyl]amine], the EC50 on human 5-HT2A receptor [1] (setting [5]) was 45.7 nM; on human 5-HT2C receptor [4] it was 8.32 nM. The Emax on human 5-HT2A receptor [1] was determined as 108 ± 2.78%; on human 5-HT2C receptor [4], 91.4 ± 2.03%. Also, the inhibition constant Ki on human 5-HT2A receptor [2] is 457 nM; on human 5-HT2C receptor [3] it was 355 nM.
For `Cc1ccc(CNCCc2c[nH]c3ccccc23)cc1` [Compound 14, N-(4-Methylbenzyl)-[2-(1H-indol-3-yl)ethyl]amine], the affinity at human 5-HT2B receptor corresponds to a Ki of 74.1 nM. On human 5-HT2A receptor [2], the “Selectivity 5-HT2A/2C (binding)” value came to 0.81 and the inhibition constant (Ki) was 417 nM. Also, on human 5-HT2C receptor [3], the “Selectivity 5-HT2C/2A (binding, in parentheses)” value was found to be 1.23 and the Ki was 331 nM. Besides, at human 5-HT2C receptor [4], the EC50 was 1200 nM and the Emax is 100 ± 5.36%.
In the case of `O=[N+]([O-])c1ccc(CNCCc2c[nH]c3ccccc23)cc1` [Compound 18, N-(4-Nitrobenzyl)-[2-(1H-indol-3-yl)ethyl]amine], at human 5-HT2B receptor, the affinity corresponds to a Ki of 200 nM. Further, at human 5-HT2A receptor [2], the “Selectivity 5-HT2A/2C (binding)” value was 0.54 and the inhibitory constant (Ki) is 2630 nM. Also, at human 5-HT2C receptor [3], the “Selectivity 5-HT2C/2A (binding, in parentheses)” value was determined as 1.85 and the Ki is 1410 nM. Besides, on human 5-HT2C receptor [4], the EC50 is 525 nM and the maximal response (Emax) was 92 ± 8.69%.
In the case of `COc1cccc(CNCCc2c[nH]c3ccccc23)c1OC` [Compound 20, N-(2,3-Dimethoxybenzyl)-[2-(1H-indol-3-yl)ethyl]amine], at human 5-HT2B receptor, the affinity corresponds to a Ki of 195 nM. At human 5-HT2A receptor [2], the “Selectivity 5-HT2A/2C (binding)” value was 0.73 and the inhibition constant (Ki) is 1510 nM. At human 5-HT2C receptor [3], the “Selectivity 5-HT2C/2A (binding, in parentheses)” value was determined as 1.37 and the inhibition constant (Ki) is 1120 nM. At human 5-HT2C receptor [4], the EC50 was 3630 nM and the maximal effect (Emax) turned out to be 117 ± 9.18%.
For the compound `Oc1ccc(Br)cc1CNCCc1c[nH]c2ccccc12` [Compound 26, N-(5-Bromo-2-hydroxybenzyl)-[2-(1H-indol-3-yl)ethyl]amine], on human 5-HT2A receptor [2], the “Selectivity 5-HT2A/2C (binding)” value amounted to 2.39 and the Ki was 309 nM. Moreover, at human 5-HT2C receptor [3], the “Selectivity 5-HT2C/2A (binding, in parentheses)” value amounted to 0.42 and the inhibition constant (Ki) is 724 nM. In addition, at human 5-HT2C receptor [4], the EC50 was 708 nM and the Emax worked out at 108 ± 2.88%.
At human 5-HT2B receptor, `O=[N+]([O-])c1ccc(O)c(CNCCc2c[nH]c3ccccc23)c1` [Compound 30, N-(5-Nitro-2-hydroxybenzyl)-[2-(1H-indol-3-yl)ethyl]amine] came in with an inhibition constant Ki of 891 nM. Besides, the values for the inhibition at 10 µM at human 5-HT2A receptor [2] and at human 5-HT2C receptor [3] were 8 ± 4% and 31 ± 4%, respectively.
Compound `COc1ccc(CNCCc2c[nH]c3ccccc23)c(OC)c1` [Compound 32, N-(2,4-Dimethoxybenzyl)-[2-(1H-indol-3-yl)ethyl]amine] showed an inhibition constant (Ki) at human 5-HT2B receptor of 234 nM. For the same compound, on human 5-HT2A receptor [2], the “Selectivity 5-HT2A/2C (binding)” value was 0.41 and the inhibition constant Ki was 661 nM. For the same compound, at human 5-HT2C receptor [3], the “Selectivity 5-HT2C/2A (binding, in parentheses)” value is on record as 2.44 and the Ki is 269 nM. Also, on human 5-HT2C receptor [4], the EC50 is 240 nM and the Emax is 117 ± 4.59%.
Turning to `Oc1c(Br)cc(Br)cc1CNCCc1c[nH]c2ccccc12` [Compound 35, N-(3,5-Dibromo-2-hydroxybenzyl)-[2-(1H-indol-3-yl)ethyl]amine], at human 5-HT2B receptor, the affinity, expressed as Ki, was 6030 nM. Besides, the inhibition at 10 µM on human 5-HT2A receptor [2] came to 12 ± 4%; on human 5-HT2C receptor [3] it was 26 ± 4%.
Turning to `NCCc1c[nH]c2ccccc12` [Tryptamine], the inhibitory constant (Ki) is 110 nM on human 5-HT2B receptor and 95.5 nM on human 5-HT2C receptor [3]. Moreover, the figures for the maximal effect (Emax) on human 5-HT2A receptor [1] and at human 5-HT2C receptor [4] were 97.6 ± 2.34% and 108 ± 3.43%, respectively. For the same compound, on human 5-HT2C receptor [4], the EC50 is 1.17 nM.
